Assay results reported in patent US20240003879A1, “METHODS FOR DIAGNOSIS AND MONITORING OF TOXIC EPIDERMAL NECROLYSIS” (INSERM (INSTITUT NATIONAL DE LA SANTÉ ET DE LA RECHERCHE …, priority 2020, published 2024).
Entries after “also recorded” stand apart in the source; their conditions may differ.

How the values were obtained:
[1] = system: Skw3 control transductant UNO H13 (Sulfamethoxazole-allergic donor); assay: TCR-transductant stimulation assay, control transductant UNO H13; format: cell-based, human; conditions: 24 h, heterologous EBV-transformed B cells, no drug 5.2
From the text: (§1) Skw3 cell lines (Leibniz Institute DSMZ, Brunswick, Germany, (50)) were transduced as described previously (51). […] The resulting retroviruses were used to transduce the TCR-defective Skw3 cell line, which also expresses the human CD8 coreceptor. The TCR-transduced cells outgrowing in selective medium were picked, and the expression of the correct TCR α and β was further assessed by flow cytometry, using a FACS-Canto-I device (BD-Biosciences, San Jose, CA, USA). The transduced cells with stable TCR expression were selected for assessment of reactivity and specificity, which was measured by TCR-induced CD69 expression. Skw3 cell lines expressing the cognate TCR α and β chains were cocultured with autologous EBV-transformed B-lymphoblastoid cell lines (52) at 1:2 ratio at 37° C. Tested drugs were added to the cocultures with the indicated concentrations. After 24 h, cells were stained with anti-human CD3 (Biolegend) and anti-human CD69 (Biolegend) and analysed by flow cytometry. […] Experiments were repeated at least 2 times. […] Heterologous EBV-transformed B cells were also used to stimulate control transductants.

[2] = system: TCRαβ Skw3 transfectant C2 (TCR of top clone of patient TEN-7); format: cell-based, human; conditions: 24 h, heterologous PBMCs from healthy donors, no drug 31.7
From the text: Skw3 cell lines (Leibniz Institute DSMZ, Brunswick, Germany, (50)) were transduced as described previously (51). […] The resulting retroviruses were used to transduce the TCR-defective Skw3 cell line, which also expresses the human CD8 coreceptor. The TCR-transduced cells outgrowing in selective medium were picked, and the expression of the correct TCR α and β was further assessed by flow cytometry, using a FACS-Canto-I device (BD-Biosciences, San Jose, CA, USA). The transduced cells with stable TCR expression were selected for assessment of reactivity and specificity, which was measured by TCR-induced CD69 expression. Skw3 cell lines expressing the cognate TCR α and β chains were cocultured with autologous EBV-transformed B-lymphoblastoid cell lines (52) at 1:2 ratio at 37° C. Tested drugs were added to the cocultures with the indicated concentrations. After 24 h, cells were stained with anti-human CD3 (Biolegend) and anti-human CD69 (Biolegend) and analysed by flow cytometry. […] Experiments were repeated at least 2 times. […] Then, the productive rearranged TCRα and TCRβ chains were transduced into Skw3 cells, a TCR defective lymphoma line (28) (data not shown). […] The following day, we measured CD69 expression at the surface of Skw3 cells, as marker for TCR stimulation. […]

[3] = system: Skw3 control transductant 17D (Abacavir-allergic donor); assay: TCR-transductant stimulation assay, control transductant 17D; format: cell-based, human; conditions: control 17D, 24 h, heterologous EBV-transformed B cells, no drug 1.4
From the text: as §1

[4] = system: human CD45+ cells (PBMCs from a TEN patient); assay: Human PBMC expansion in lamotrigine- versus vehicle-treated NSG recipient mice; format: in vivo, mouse
Experimental: NSG animals were adoptively transferred at day 0 with 1.10^6 millions PBMCs collected from a TEN patient, 1 year after disease recovery. Animals were then administrated with lamotrigine (the culprit drug; 0.1 mg/kg/day) or vehicle by oral gavage, every day, from day 4. Results depict the kinetic of human CD45+ cell expansion measured by flow cytometry in the blood of NSG mice throughout the protocol, or the spleen at day 29. Results are expressed as mean and individual % of humanization, calculated according to the following formula: % human CD45+ cells/% (mouse+human) CD45+ cells. Six mice per group were used in this experiment. NSG animals were adoptively transferred at day 0 with 1.10^6 millions PBMCs collected from a TEN patient (1 year after disease recovery) or from a healthy donor. Animals were then administrated with lamotrigine (the culprit drug; 0.1 mg/kg/day) or vehicle, by oral gavage every day, from day 4. Results depict the expansion of human CD45+ cells measured by flow cytometry in the spleen of NSG mice, 29 days after cell transfer. Results are expressed as mean and individual % of humanization, calculated according to the following formula: % human CD45+ cells/% (mouse+human) CD45+ cells. Six mice per group were used in this experiment. NSG animals were adoptively transferred at day 0 with 1.10^6 millions PBMCs collected from a TEN patient (1 year after disease recovery). Animals were then administrated with lamotrigine (the culprit drug; 0.1 mg/kg/day), by oral gavage every day, from day 4. Results depict the expression of CD38 (A) and Granzyme B and Granulysin (B) markers on CD4+ and CD8+ T cells as measured by flow cytometry in the spleen of NSG mice, 43 days after cell transfer. Model description: We generated a surrogate model of TEN disease in mouse, by reconstituting NSG animals with 1.10^6 millions of peripheral blood mononuclear cells (PBMCs) collected from a TEN patient, 1 year after disease recovery. The patients' T cells were then reactivated with the offending drug delivered to animals by oral gavage.

[5] = system: NK cells; conditions: preclinical data; cited from earlier work
[6] = system: relapsed or refractory multiple myeloma; conditions: monotherapy or with dexamethasone or dexamethasone and an immunomodulatory drug; RRMM; doses up to 16 mg/kg intravenous infusion; cited from earlier work
[7] = system: plasmablasts and NK cells; conditions: cited from earlier work
[8] = system: relapsed or refractory multiple myeloma; conditions: cited from earlier work

In the case of `CC(C)Cc1ccc(C(C)C(=O)O)cc1` (centres unmarked) [Ibuprofen], the “% of CD69 expression in CD3+ transfectants, Concentration 1” value ([1]; Ibuprofen 20 μg/ml) is reported as 4.6%, the “% of CD69 expression in CD3+ transfectants, Concentration 2” value (“% of CD69 expression … Concentration 2” below) ([1]; Ibuprofen 100 μg/ml) is reported as 10.5% and the “% of CD69 expression in CD3+ transfectants, Concentration 3” value (“% of CD69 expression … Concentration 3” below) ([1]; Ibuprofen 200 μg/ml) is reported as 12.4%.
For `COc1ccnc(C[S+]([O-])c2nc3ccc(OC(F)F)cc3[nH]2)c1OC` (centres unmarked) [Pantoprazole], the “% of CD69 expression … Concentration 2” value ([2]; Pantoprazole 10 μg/ml) was 40.1%, the “% of CD69 expression … Concentration 3” value ([2]; Pantoprazole 50 μg/ml) was 47.4% and the “% of CD69 expression in CD3+ transfectants, Concentration 1” value ([3]; Abacavir 1 μg/ml, Pantoprazole 12.5 μg/ml) was 1.8%. For the same compound, the “% of CD69 expression … Concentration 2” value ([3]; Abacavir 10 μg/ml, Pantoprazole 25 μg/ml) was 1.8% and the “% of CD69 expression … Concentration 3” value ([3]; Abacavir 20 μg/ml, Pantoprazole 50 μg/ml) was 1.7%.
In the case of `Nc1nnc(-c2cccc(Cl)c2Cl)c(N)n1` [lamotrigine], the “expanded CD8+ T cells expressing CD38, Granzyme B and Granulysin markers” value ([4]; lamotrigine 0.1 mg/kg/day from day 4, spleen, 43 days after cell transfer (FIG. 11)) is reported as “significant part”, the “number of animals with a high % of humanization, culprit drug group versus vehicle group” value ([4]; lamotrigine 0.1 mg/kg/day oral gavage from day 4, TEN patient PBMCs, blood and spleen, day 29 (FIG. 9)) is reported as “largely superior” and the “proliferation/expansion of TEN PBMCs versus healthy donor PBMCs in response to lamotrigine” value ([4]; lamotrigine 0.1 mg/kg/day oral gavage from day 4, spleen, 29 days after cell transfer (FIG. 10)) is reported as “Preferential expansion of TEN PBMCs; also recorded: superior ability of TEN cells to proliferate”.
In the case of “MOR202: fully human anti-CD38 antibody being developed by Morphosys (CAS Number 2197112-39-1)”, the “effect on NK cells” value [5] is given as “reduces NK cells” and the safety and efficacy [6] is given as “safe and effective”.
For “TAK-079: CD38-binding fully human IgG 1 λ mAb being developed by Takeda”, the “tolerability in healthy populations” value ([7]; healthy populations) is given as “well tolerated”, the “depletion of plasmablasts and NK cells” value ([7]; subcutaneous injection) is given as “more durable in depleting plasmablasts and NK cells” and the objective response rate ([8]; heavily pre-treated patients with RRMM, subcutaneous injection) is given as 43%. The safety/tolerability in patients ([8]; human, in vivo, sc) was “safe and well-tolerated”.
